Source: the supplement of paper PMC11208160

Assay: recombinant barcode read abundance after kanamycin selection (control-corrected) (log10(CPM+1)); higher = more efficient recombination; sequences stand for … in AGTGCAGAGAAAATCGGCCAGTTTTCTCTGCCTGCAGTCCGCATGCCGT…AGATTTATGCAGCGGACTGCCTTTCTCCCAAAGTGATAAACCGGACAGTATCATGGACCGGTTTTCCCGGTAATCCGTATTTGCAAGGTTGGTTTCACT; site = the 11-nt target
Outline: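 Duplicate cultures were plated either on chloramphenicol/ampicillin LB agar, serving as control, or on chloramphenicol/ampicillin/kanamycin with 0.1 mM IPTG. These came from a pooled E. coli library co-electroporated with a donor plasmid, each member pairing a target with an IS621 bridge RNA target-binding loop. Recombination efficiency equals averaged, control-corrected counts per million of recombinant-junction barcodes. It is listed as log10(CPM+1).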
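Also: IS621 recombinase and bridge RNA in Escherichia coli cells.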

| Sequence | recombinant barcode read abundance (log10) |
| --- | --- |
| CATTTCTCTTGGGTTCTAACCTGTTGCCT (site AATTTCTCTAG) | 0.0363 |
| CATTTCTCTTGGGTTCTAACCTGTTGCCT (site CATTTCTCTAG) | 0.341 |
| CATTTCTCTTGGGTTCTAACCTGTTGCCT (site GATTTCTCTAG) | 0.116 |
| CATTTCTCTTGGGTTCTAACCTGTTGCCT (site TATTTCTCTAG) | 0.00749 |
| CCAAAGACTTGGGTTCTAACCTGTTGCTT (site CCAAAGACTAA) | 0.653 |
| CCAAAGACTTGGGTTCTAACCTGTTGCTT (site GGGTCACCTCC) | 0 |
| CCACACTCTTGGGTTCTAACCTGTTGCCT (site CAACACTCTAG) | 0.0891 |
| CCACACTCTTGGGTTCTAACCTGTTGCCT (site CCACACTCTAG) | 1.27 |
| CCACACTCTTGGGTTCTAACCTGTTGCCT (site CGACACTCTAG) | 0.0247 |
| CCACACTCTTGGGTTCTAACCTGTTGCCT (site CTACACTCTAG) | 0.171 |
| CCACATCCTTGGGTTCTAACCTGTTGCCT (site CCACATCCTAG) | 0.289 |
| CCACATCCTTGGGTTCTAACCTGTTGCCT (site GCACACCCTAG) | 0.109 |
| CCACCGTCTTGGGTTCTAACCTGTTGCCT (site CCACAGTCTAG) | 0.171 |
| CCACCGTCTTGGGTTCTAACCTGTTGCCT (site CCACCGTCTAG) | 0.156 |
| CCACCGTCTTGGGTTCTAACCTGTTGCCT (site CCACGGTCTAG) | 0.177 |
| CCACCGTCTTGGGTTCTAACCTGTTGCCT (site CCACTGTCTAG) | 0.175 |
| CCACGGTCTTGGGTTCTAACCTGTTGCCT (site CCACAGTCTAG) | 0.161 |
| CCACGGTCTTGGGTTCTAACCTGTTGCCT (site CCACCGTCTAG) | 0.0249 |
| CCACGGTCTTGGGTTCTAACCTGTTGCCT (site CCACGGTCTAG) | 1.1 |
| CCACGGTCTTGGGTTCTAACCTGTTGCCT (site CCACTGTCTAG) | 0.033 |
| CCAGAAGCTTGGGTTCTAACCTGTTGCCT (site CCAGAAGCTAG) | 0.179 |
| CCAGAAGCTTGGGTTCTAACCTGTTGCCT (site CCAGCAGCTAG) | 0.222 |
| CCAGAAGCTTGGGTTCTAACCTGTTGCCT (site CCAGGAGCTAG) | 0.407 |
| CCAGAAGCTTGGGTTCTAACCTGTTGCCT (site CCAGTAGCTAG) | 0.0645 |
| CCAGGACCTTGGGTTCTAACCTGTTGCCT (site CCAGGACCTAG) | 2.2 |
| CCAGGACCTTGGGTTCTAACCTGTTGCCT (site CGAGGACCTAG) | 0.291 |

| Sequence | recombinant barcode read abundance (log10) |
| --- | --- |
| CCAGGAGCTTGGGTTCTAACCTGTTGCCT (site CCAGAAGCTAG) | 0.338 |
| CCAGGAGCTTGGGTTCTAACCTGTTGCCT (site CCAGCAGCTAG) | 0.103 |
| CCAGGAGCTTGGGTTCTAACCTGTTGCCT (site CCAGGAGCTAG) | 0.545 |
| CCAGGAGCTTGGGTTCTAACCTGTTGCCT (site CCAGTAGCTAG) | 0.109 |
| CCAGGTACTTGGGTTCTAACCTGTTGCCT (site ACAGGTACTAG) | 0.272 |
| CCAGGTACTTGGGTTCTAACCTGTTGCCT (site CCAGGTACTAG) | 0.701 |
| CCAGGTACTTGGGTTCTAACCTGTTGCCT (site GCAGGTACTAG) | 0.117 |
| CCAGGTACTTGGGTTCTAACCTGTTGCCT (site TCAGGTACTAG) | 0.182 |
| CCAGGTCCTTGGGTTCTAACCTGTTGCAT (site CCAGGTCCTAC) | 0.111 |
| CCAGGTCCTTGGGTTCTAACCTGTTGCAT (site CCAGGTCCTAT) | 2.25 |
| CCAGGTGCTTGGGTTCTAACCTGTTGCGG (site CCAGGTGCTCC) | 1.62 |
| CCAGGTGCTTGGGTTCTAACCTGTTGCGG (site GGCTTGACTAG) | 0.0921 |
| CCAGTAACTTGGGTTCTAACCTGTTGCCT (site CCAGTAACTAG) | 0.659 |
| CCAGTAACTTGGGTTCTAACCTGTTGCCT (site CCAGTCACTAG) | 0.137 |
| CCAGTAACTTGGGTTCTAACCTGTTGCCT (site CCAGTGACTAG) | 0.082 |
| CCAGTAACTTGGGTTCTAACCTGTTGCCT (site CCAGTTACTAG) | 0.0883 |
| CCAGTAGCTTGGGTTCTAACCTGTTGCCT (site CCAGAAGCTAG) | 0.382 |
| CCAGTAGCTTGGGTTCTAACCTGTTGCCT (site CCAGCAGCTAG) | 0.161 |
| CCAGTAGCTTGGGTTCTAACCTGTTGCCT (site CCAGGAGCTAG) | 0.193 |
| CCAGTAGCTTGGGTTCTAACCTGTTGCCT (site CCAGTAGCTAG) | 0.52 |
| CCAGTCACTTGGGTTCTAACCTGTTGCCT (site CCAGTAACTAG) | 0.377 |
| CCAGTCACTTGGGTTCTAACCTGTTGCCT (site CCAGTCACTAG) | 1.88 |
| CCAGTCACTTGGGTTCTAACCTGTTGCCT (site CCAGTGACTAG) | 0.176 |
| CCAGTCACTTGGGTTCTAACCTGTTGCCT (site CCAGTTACTAG) | 0.19 |
| CCAGTGACTTGGGTTCTAACCTGTTGCCT (site CCAGTAACTAG) | 0.931 |
| CCAGTGACTTGGGTTCTAACCTGTTGCCT (site CCAGTCACTAG) | 0.299 |

| Sequence | recombinant barcode read abundance (log10) |
| --- | --- |
| CCAGTGACTTGGGTTCTAACCTGTTGCCT (site CCAGTGACTAG) | 1.38 |
| CCAGTGACTTGGGTTCTAACCTGTTGCCT (site CCAGTTACTAG) | 0.254 |
| CCATGGACTTGGGTTCTAACCTGTTGCCT (site CCAAGGACTAG) | 0.202 |
| CCATGGACTTGGGTTCTAACCTGTTGCCT (site CCACGGACTAG) | 0.516 |
| CCATGGACTTGGGTTCTAACCTGTTGCCT (site CCAGGGACTAG) | 0.0382 |
| CCATGGACTTGGGTTCTAACCTGTTGCCT (site CCATGGACTAG) | 0.252 |
| CCGAAGACTTGGGTTCTAACCTGTTGCCT (site CCGAAGACTAG) | 0.112 |
| CCGAAGACTTGGGTTCTAACCTGTTGCCT (site TCGAAGACTTG) | 0.492 |
| CCGACTCCTTGGGTTCTAACCTGTTGCCT (site CCGAATCCTAG) | 0.0273 |
| CCGACTCCTTGGGTTCTAACCTGTTGCCT (site CCGACTCCTAG) | 0.13 |
| CCGACTCCTTGGGTTCTAACCTGTTGCCT (site CCGAGTCCTAG) | 0 |
| CCGACTCCTTGGGTTCTAACCTGTTGCCT (site CCGATTCCTAG) | 0.102 |
| CCGATTCCTTGGGTTCTAACCTGTTGCCT (site CCGAATCCTAG) | 0.153 |
| CCGATTCCTTGGGTTCTAACCTGTTGCCT (site CCGACTCCTAG) | 0.171 |
| CCGATTCCTTGGGTTCTAACCTGTTGCCT (site CCGAGTCCTAG) | 0.0319 |
| CCGATTCCTTGGGTTCTAACCTGTTGCCT (site CCGATTCCTAG) | 0.217 |
| CCGCAGCCTTGGGTTCTAACCTGTTGCCT (site CCGAAGCCTAG) | 0.0264 |
| CCGCAGCCTTGGGTTCTAACCTGTTGCCT (site CCGCAGCCTAG) | 1.59 |
| CCGCAGCCTTGGGTTCTAACCTGTTGCCT (site CCGGAGCCTAG) | 0.177 |
| CCGCAGCCTTGGGTTCTAACCTGTTGCCT (site CCGTAGCCTAG) | 0.0447 |
| CCGCCAGCTTGGGTTCTAACCTGTTGCCT (site CCGCCAGCTAG) | 0.171 |
| CCGCCAGCTTGGGTTCTAACCTGTTGCCT (site CCGCCCGCTAG) | 0.0231 |
| CCGCCAGCTTGGGTTCTAACCTGTTGCCT (site CCGCCGGCTAG) | 0.0999 |
| CCGCCAGCTTGGGTTCTAACCTGTTGCCT (site CCGCCTGCTAG) | 0.186 |
| CCGCCCGCTTGGGTTCTAACCTGTTGCCT (site CCGCCAGCTAG) | 0.00972 |
